Some results are limits rather than exact numbers.

One assay concerns the target L-lactate dehydrogenase (Plasmodium falciparum, UniProt B9UDZ5). In words: Enzyme Assay. The source says:
(§1) Enzyme assay using recombinant pfLDH and mLDH (bovine heart).

For assay [1], the target named is L-lactate dehydrogenase B chain (Bos taurus, UniProt Q5E9B1). In words: Enzyme Assay.
Excerpt: as §1

Chain of L-lactate dehydrogenase (B9UDZ5 whole entry): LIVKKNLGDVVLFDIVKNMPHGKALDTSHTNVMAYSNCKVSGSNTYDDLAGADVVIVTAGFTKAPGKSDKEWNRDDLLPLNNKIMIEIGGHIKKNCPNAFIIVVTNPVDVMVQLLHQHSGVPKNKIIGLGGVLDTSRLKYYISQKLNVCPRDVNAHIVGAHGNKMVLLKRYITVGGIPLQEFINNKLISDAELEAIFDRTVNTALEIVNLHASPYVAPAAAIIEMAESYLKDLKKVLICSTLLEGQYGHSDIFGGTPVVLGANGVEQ
Chain of L-lactate dehydrogenase B chain (Q5E9B1 whole entry): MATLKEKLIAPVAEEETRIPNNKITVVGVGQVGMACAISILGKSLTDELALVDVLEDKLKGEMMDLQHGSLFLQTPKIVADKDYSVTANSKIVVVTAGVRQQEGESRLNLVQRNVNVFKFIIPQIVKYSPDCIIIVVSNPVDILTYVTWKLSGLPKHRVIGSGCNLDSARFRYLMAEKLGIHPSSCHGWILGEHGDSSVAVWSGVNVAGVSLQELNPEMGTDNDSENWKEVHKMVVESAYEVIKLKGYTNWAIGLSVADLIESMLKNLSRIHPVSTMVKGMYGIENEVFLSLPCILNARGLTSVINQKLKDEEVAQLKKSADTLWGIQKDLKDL

In general, IC50 refers to the concentration at which inhibition is half-maximal. High values mean weaker potency, low ones greater potency. Turning to `COc1ccccc1NC(=O)C(=O)O` [Oxamic Acid/Ester, 6], the IC50 (against L-lactate dehydrogenase; in assay [1]) was more than 200 µM each time.

Turning to `Cc1cccc(N(C(=O)C(=O)O)c2ccccc2)c1` [Oxamic Acid/Ester, 7], the IC50 against L-lactate dehydrogenase stood at 97.9 µM; in assay [1] it was 107 µM. On the same counts, the results for `CCc1ccccc1N(Cc1ccccc1)C(=O)C(=O)O` [Oxamic Acid/Ester, 8] are more than 200 µM and 158 µM. As to `CCCCCCCNC(=O)C(=O)O` [Oxamic Acid/Ester, 10], the IC50 at L-lactate dehydrogenase is 160 µM; in assay [1], more than 200 µM. On the same counts, the results for `C=CCN(C)C(=O)C(=O)O` [Oxamic Acid/Ester, 11] are more than 200 µM and more than 200 µM. For the compound `CCCCNC(=O)C(=O)O` [Oxamic Acid/Ester, 12], the IC50 (against L-lactate dehydrogenase; in assay [1]) was more than 200 µM each time.

Take `CCCCCCCCCCCCCCCCNC(=O)C(=O)O` [Oxamic Acid/Ester, 14]: the IC50 against L-lactate dehydrogenase was more than 200 µM; in assay [1], 150 µM.

Take `Cc1ccc(CNC(=O)C(=O)O)o1` [Oxamic Acid/Ester, 15]: the IC50 (against L-lactate dehydrogenase; in assay [1]) was more than 200 µM each time.

With `CN(Cc1ccco1)C(=O)C(=O)O` [Oxamic Acid/Ester, 16], the IC50 was more than 200 µM at L-lactate dehydrogenase and 186 µM in assay [1]. On the same counts, the results for `O=C(O)C(=O)NCc1cccc2ccccc12` [Oxamic Acid/Ester, 17] are 43 µM and more than 200 µM.

In the case of `CC(C)c1ccc2c(c1)CCC1[C@](C)(CNC(=O)C(=O)O)CCC[C@]21C` (stereo partly drawn) [Oxamic Acid/Ester, 18], the values for the IC50 (on L-lactate dehydrogenase; in assay [1]) were 59 µM and 20 µM, respectively. For `O=C(O)C(=O)N1CCN(Cc2ccccc2)CC1` [Oxamic Acid/Ester, 19], in that order: 169 µM and 46 µM.

Consider `O=C(O)C(=O)N1CCC(Cc2ccccc2)CC1` [Oxamic Acid/Ester, 20], for which the results for the IC50 (against L-lactate dehydrogenase; in assay [1]) were 101 µM and 59 µM, respectively. For `COCCNC(=O)C(=O)O` [Oxamic Acid/Ester, 21], in that order: 14 µM and 25 µM.

Regarding `O=C(O)C(=O)N(Cc1ccccc1)c1ccccc1` [Oxamic Acid/Ester, 22], the IC50 (against L-lactate dehydrogenase; in assay [1]) was more than 200 µM throughout.

For the compound `CCCCCCNC(=O)C(=O)O` [Oxamic Acid/Ester, 23], the IC50 against L-lactate dehydrogenase turned out to be 47 µM; in assay [1], 133 µM. As for `CN(C(=O)C(=O)O)c1ccccc1` [Oxamic Acid/Ester, 24], the IC50 (against L-lactate dehydrogenase; in assay [1]) was more than 200 µM throughout. `COCCCNC(=O)C(=O)O` [Oxamic Acid/Ester, 25]: the IC50 is 43 µM against L-lactate dehydrogenase and 31 µM in assay [1].

As for `CCCCCCCCCNC(=O)C(=O)O` [Oxamic Acid/Ester, 26], the IC50 against L-lactate dehydrogenase was 88 µM; in assay [1] it was more than 200 µM. Consider `O=C(O)C(=O)N1CCN(c2ccccc2)CC1` [Oxamic Acid/Ester, 27], for which the IC50 at L-lactate dehydrogenase was more than 200 µM; in assay [1], 32 µM. For the compound `CCCCCN(C)C(=O)C(=O)O` [Oxamic Acid/Ester, 28], the IC50 (against L-lactate dehydrogenase; in assay [1]) was more than 200 µM each time. As for `C=CCN(C(=O)C(=O)O)C1CCCCC1` [Oxamic Acid/Ester, 29], the IC50 (against L-lactate dehydrogenase; in assay [1]) was more than 200 µM each time. Take `CN(Cc1ccccc1)C(=O)C(=O)O` [Oxamic Acid/Ester, 30]: the IC50 was more than 200 µM against L-lactate dehydrogenase and 168 µM in assay [1].

On to `CCC(C)NC(=O)C(=O)O` (stereo not drawn) [Oxamic Acid/Ester, 31], for which the IC50 (against L-lactate dehydrogenase; in assay [1]) was more than 200 µM in each case. In the case of `O=C(O)C(=O)N(Cc1ccccc1)Cc1ccccc1` [Oxamic Acid/Ester, 32], the IC50 (against L-lactate dehydrogenase; in assay [1]) was more than 200 µM in each case.

Consider `CC1CCCCN1C(=O)C(=O)O` (stereo not drawn) [Oxamic Acid/Ester, 33], for which the IC50 against L-lactate dehydrogenase is more than 200 µM; in assay [1], 43 µM.

As for `CC(C)CCNC(=O)C(=O)O` [Oxamic Acid/Ester, 34], the results for the half-maximal inhibitory concentration (IC50) (on L-lactate dehydrogenase; in assay [1]) were 157 µM and more than 200 µM, respectively. As to `O=C(O)C(=O)NCC1CCCO1` (stereo not drawn) [Oxamic Acid/Ester, 35], the IC50 against L-lactate dehydrogenase is 188 µM; in assay [1] it was more than 200 µM. In the case of `O=C(O)C(=O)NCCC(c1ccccc1)c1ccccc1` [Oxamic Acid/Ester, 36], the values for the IC50 (against L-lactate dehydrogenase; in assay [1]) were 35 µM and 90 µM, respectively. On to `CSc1cccc(NC(=O)C(=O)O)c1` [Oxamic Acid/Ester, 37], for which the IC50 (at L-lactate dehydrogenase; in assay [1]) was more than 200 µM throughout. For `CC(NC(=O)C(=O)O)c1cccc2c1CCCC2` (stereo not drawn) [Oxamic Acid/Ester, 38], the IC50 on L-lactate dehydrogenase was 146 µM; in assay [1], more than 200 µM. `O=C(O)C(=O)NCc1ccco1` [Oxamic Acid/Ester, 39]: the IC50 (at L-lactate dehydrogenase; in assay [1]) was more than 200 µM throughout. On to `CC(C)CNC(=O)C(=O)O` [Oxamic Acid/Ester, 40], for which the IC50 (at L-lactate dehydrogenase; in assay [1]) was more than 200 µM in each case. On to `O=C(O)C(=O)NCCCCc1ccccc1` [Oxamic Acid/Ester, 41], for which the IC50 was found to be 41 µM against L-lactate dehydrogenase and 88 µM in assay [1]. On the same counts, the results for `O=C(O)C(=O)NCCc1ccc(Br)cc1` [Oxamic Acid/Ester, 42] are 51 µM and more than 200 µM.

Take `Cc1cc2c(C(C)C)c(O)c(O)c(C=O)c2c(O)c1-c1c(C)cc2c(C(C)C)c(O)c(O)c(C=O)c2c1O` [Tash 1]: the values for the IC50 (against L-lactate dehydrogenase; in assay [1]) were 3.97 µM and 6.9 µM, respectively. `NC(=O)C(=O)O` [carbamoylformic acid] yielded an IC50 on L-lactate dehydrogenase of 94.4 µM.

Source of the values: BindingDB's records for doi:10.1021/cc060110n (University of Mississippi, 2007).
